According to PubChem BioAssay AID1259407 (Chemical Carcinogenesis Research Information System (CCRIS), 2018):
Calls of active or inactive are those of the source. The rule behind the calls is not given here.

Test system: CCRIS mutagenicity, Ames/micronucleus/aberration tests
Assay: CCRIS mutagenicity studies

CC1(C)COC1=O
mutagenic call (Test System: AMES SALMONELLA TYPHIMURIUM, Strain/Indicator: TA98, Metabolic Activation: HAMSTER, LIVER, S-9, AROCLOR 1254, Method: PREINCUBATION): inactive; negative
mutagenic call (Test System: AMES SALMONELLA TYPHIMURIUM, Strain/Indicator: TA98, Metabolic Activation: HAMSTER, LIVER, S-9, AROCLOR 1254, Method: STANDARD PLATE): inactive; negative
mutagenic call (Test System: AMES SALMONELLA TYPHIMURIUM, Strain/Indicator: TA98, Metabolic Activation: HAMSTER, LIVER, S-9, Method: PREINCUBATION): inactive; negative
mutagenic call (Test System: AMES SALMONELLA TYPHIMURIUM, Strain/Indicator: TA98, Metabolic Activation: HAMSTER, LIVER, S-9, Method: STANDARD PLATE): inactive; negative
mutagenic call (Test System: AMES SALMONELLA TYPHIMURIUM, Strain/Indicator: TA98, Metabolic Activation: MOUSE, LIVER, S-9, AROCLOR 1254, Method: PREINCUBATION): inactive; negative
mutagenic call (Test System: AMES SALMONELLA TYPHIMURIUM, Strain/Indicator: TA98, Metabolic Activation: MOUSE, LIVER, S-9, AROCLOR 1254, Method: STANDARD PLATE): inactive; negative
mutagenic call (Test System: AMES SALMONELLA TYPHIMURIUM, Strain/Indicator: TA98, Metabolic Activation: MOUSE, LIVER, S-9, Method: PREINCUBATION): inactive; negative
mutagenic call (Test System: AMES SALMONELLA TYPHIMURIUM, Strain/Indicator: TA98, Metabolic Activation: MOUSE, LIVER, S-9, Method: STANDARD PLATE): inactive; negative
mutagenic call (Test System: AMES SALMONELLA TYPHIMURIUM, Strain/Indicator: TA98, Metabolic Activation: NONE, Method: PREINCUBATION): inactive; negative
mutagenic call (Test System: AMES SALMONELLA TYPHIMURIUM, Strain/Indicator: TA98, Metabolic Activation: NONE, Method: STANDARD PLATE): inactive; negative
mutagenic call (Test System: AMES SALMONELLA TYPHIMURIUM, Strain/Indicator: TA98, Metabolic Activation: RAT, LIVER, S-9, AROCLOR 1254, Method: PREINCUBATION): inactive; negative
mutagenic call (Test System: AMES SALMONELLA TYPHIMURIUM, Strain/Indicator: TA98, Metabolic Activation: RAT, LIVER, S-9, AROCLOR 1254, Method: STANDARD PLATE): inactive; negative
mutagenic call (Test System: AMES SALMONELLA TYPHIMURIUM, Strain/Indicator: TA98, Metabolic Activation: RAT, LIVER, S-9, Method: PREINCUBATION): inactive; negative
mutagenic call (Test System: AMES SALMONELLA TYPHIMURIUM, Strain/Indicator: TA98, Metabolic Activation: RAT, LIVER, S-9, Method: STANDARD PLATE): inactive; negative
mutagenic call (Test System: AMES SALMONELLA TYPHIMURIUM, Strain/Indicator: TA100, Metabolic Activation: HAMSTER, LIVER, S-9, AROCLOR 1254, Method: STANDARD PLATE): active; positive
mutagenic call (Test System: AMES SALMONELLA TYPHIMURIUM, Strain/Indicator: TA100, Metabolic Activation: HAMSTER, LIVER, S-9, Method: STANDARD PLATE): active; positive
mutagenic call (Test System: AMES SALMONELLA TYPHIMURIUM, Strain/Indicator: TA100, Metabolic Activation: MOUSE, LIVER, S-9, AROCLOR 1254, Method: STANDARD PLATE): active; positive
mutagenic call (Test System: AMES SALMONELLA TYPHIMURIUM, Strain/Indicator: TA100, Metabolic Activation: MOUSE, LIVER, S-9, Method: STANDARD PLATE): active; positive
mutagenic call (Test System: AMES SALMONELLA TYPHIMURIUM, Strain/Indicator: TA100, Metabolic Activation: NONE, Method: STANDARD PLATE): active; positive
mutagenic call (Test System: AMES SALMONELLA TYPHIMURIUM, Strain/Indicator: TA100, Metabolic Activation: RAT, LIVER, S-9, AROCLOR 1254, Method: STANDARD PLATE): active; positive
mutagenic call (Test System: AMES SALMONELLA TYPHIMURIUM, Strain/Indicator: TA100, Metabolic Activation: RAT, LIVER, S-9, Method: STANDARD PLATE): active; positive
mutagenic call (Test System: AMES SALMONELLA TYPHIMURIUM, Strain/Indicator: TA1535, Metabolic Activation: HAMSTER, LIVER, S-9, AROCLOR 1254, Method: PREINCUBATION): inactive; negative
mutagenic call (Test System: AMES SALMONELLA TYPHIMURIUM, Strain/Indicator: TA1535, Metabolic Activation: HAMSTER, LIVER, S-9, Method: PREINCUBATION): inactive; negative
mutagenic call (Test System: AMES SALMONELLA TYPHIMURIUM, Strain/Indicator: TA1535, Metabolic Activation: MOUSE, LIVER, S-9, AROCLOR 1254, Method: PREINCUBATION): inactive; negative
mutagenic call (Test System: AMES SALMONELLA TYPHIMURIUM, Strain/Indicator: TA1535, Metabolic Activation: MOUSE, LIVER, S-9, Method: PREINCUBATION): inactive; negative
mutagenic call (Test System: AMES SALMONELLA TYPHIMURIUM, Strain/Indicator: TA1535, Metabolic Activation: NONE, Method: PREINCUBATION): inactive; negative
mutagenic call (Test System: AMES SALMONELLA TYPHIMURIUM, Strain/Indicator: TA1535, Metabolic Activation: RAT, LIVER, S-9, AROCLOR 1254, Method: PREINCUBATION): inactive; negative
mutagenic call (Test System: AMES SALMONELLA TYPHIMURIUM, Strain/Indicator: TA1535, Metabolic Activation: RAT, LIVER, S-9, Method: PREINCUBATION): inactive; negative
mutagenic call (Test System: AMES SALMONELLA TYPHIMURIUM, Strain/Indicator: TA1537, Metabolic Activation: HAMSTER, LIVER, S-9, AROCLOR 1254, Method: PREINCUBATION): inactive; negative
mutagenic call (Test System: AMES SALMONELLA TYPHIMURIUM, Strain/Indicator: TA1537, Metabolic Activation: HAMSTER, LIVER, S-9, AROCLOR 1254, Method: STANDARD PLATE): inactive; negative
mutagenic call (Test System: AMES SALMONELLA TYPHIMURIUM, Strain/Indicator: TA1537, Metabolic Activation: HAMSTER, LIVER, S-9, Method: PREINCUBATION): inactive; negative
mutagenic call (Test System: AMES SALMONELLA TYPHIMURIUM, Strain/Indicator: TA1537, Metabolic Activation: HAMSTER, LIVER, S-9, Method: STANDARD PLATE): inactive; negative
mutagenic call (Test System: AMES SALMONELLA TYPHIMURIUM, Strain/Indicator: TA1537, Metabolic Activation: MOUSE, LIVER, S-9, AROCLOR 1254, Method: PREINCUBATION): inactive; negative
mutagenic call (Test System: AMES SALMONELLA TYPHIMURIUM, Strain/Indicator: TA1537, Metabolic Activation: MOUSE, LIVER, S-9, AROCLOR 1254, Method: STANDARD PLATE): inactive; negative
mutagenic call (Test System: AMES SALMONELLA TYPHIMURIUM, Strain/Indicator: TA1537, Metabolic Activation: MOUSE, LIVER, S-9, Method: PREINCUBATION): inactive; negative
mutagenic call (Test System: AMES SALMONELLA TYPHIMURIUM, Strain/Indicator: TA1537, Metabolic Activation: MOUSE, LIVER, S-9, Method: STANDARD PLATE): inactive; negative
mutagenic call (Test System: AMES SALMONELLA TYPHIMURIUM, Strain/Indicator: TA1537, Metabolic Activation: NONE, Method: PREINCUBATION): inactive; negative
mutagenic call (Test System: AMES SALMONELLA TYPHIMURIUM, Strain/Indicator: TA1537, Metabolic Activation: NONE, Method: STANDARD PLATE): inactive; negative
mutagenic call (Test System: AMES SALMONELLA TYPHIMURIUM, Strain/Indicator: TA1537, Metabolic Activation: RAT, LIVER, S-9, AROCLOR 1254, Method: PREINCUBATION): inactive; negative
mutagenic call (Test System: AMES SALMONELLA TYPHIMURIUM, Strain/Indicator: TA1537, Metabolic Activation: RAT, LIVER, S-9, AROCLOR 1254, Method: STANDARD PLATE): inactive; negative
mutagenic call (Test System: AMES SALMONELLA TYPHIMURIUM, Strain/Indicator: TA1537, Metabolic Activation: RAT, LIVER, S-9, Method: PREINCUBATION): inactive; negative
mutagenic call (Test System: AMES SALMONELLA TYPHIMURIUM, Strain/Indicator: TA1537, Metabolic Activation: RAT, LIVER, S-9, Method: STANDARD PLATE): inactive; negative
mutagenic call (Test System: AMES SALMONELLA TYPHIMURIUM, Strain/Indicator: TA1538, Metabolic Activation: HAMSTER, LIVER, S-9, AROCLOR 1254, Method: PREINCUBATION): inactive; negative
mutagenic call (Test System: AMES SALMONELLA TYPHIMURIUM, Strain/Indicator: TA1538, Metabolic Activation: HAMSTER, LIVER, S-9, AROCLOR 1254, Method: STANDARD PLATE): inactive; negative
mutagenic call (Test System: AMES SALMONELLA TYPHIMURIUM, Strain/Indicator: TA1538, Metabolic Activation: HAMSTER, LIVER, S-9, Method: PREINCUBATION): inactive; negative
mutagenic call (Test System: AMES SALMONELLA TYPHIMURIUM, Strain/Indicator: TA1538, Metabolic Activation: HAMSTER, LIVER, S-9, Method: STANDARD PLATE): inactive; negative
mutagenic call (Test System: AMES SALMONELLA TYPHIMURIUM, Strain/Indicator: TA1538, Metabolic Activation: MOUSE, LIVER, S-9, AROCLOR 1254, Method: PREINCUBATION): inactive; negative
mutagenic call (Test System: AMES SALMONELLA TYPHIMURIUM, Strain/Indicator: TA1538, Metabolic Activation: MOUSE, LIVER, S-9, AROCLOR 1254, Method: STANDARD PLATE): inactive; negative
mutagenic call (Test System: AMES SALMONELLA TYPHIMURIUM, Strain/Indicator: TA1538, Metabolic Activation: MOUSE, LIVER, S-9, Method: PREINCUBATION): inactive; negative
mutagenic call (Test System: AMES SALMONELLA TYPHIMURIUM, Strain/Indicator: TA1538, Metabolic Activation: MOUSE, LIVER, S-9, Method: STANDARD PLATE): inactive; negative
mutagenic call (Test System: AMES SALMONELLA TYPHIMURIUM, Strain/Indicator: TA1538, Metabolic Activation: NONE, Method: PREINCUBATION): inactive; negative
mutagenic call (Test System: AMES SALMONELLA TYPHIMURIUM, Strain/Indicator: TA1538, Metabolic Activation: NONE, Method: STANDARD PLATE): inactive; negative
mutagenic call (Test System: AMES SALMONELLA TYPHIMURIUM, Strain/Indicator: TA1538, Metabolic Activation: RAT, LIVER, S-9, AROCLOR 1254, Method: PREINCUBATION): inactive; negative
mutagenic call (Test System: AMES SALMONELLA TYPHIMURIUM, Strain/Indicator: TA1538, Metabolic Activation: RAT, LIVER, S-9, AROCLOR 1254, Method: STANDARD PLATE): inactive; negative
mutagenic call (Test System: AMES SALMONELLA TYPHIMURIUM, Strain/Indicator: TA1538, Metabolic Activation: RAT, LIVER, S-9, Method: PREINCUBATION): inactive; negative
mutagenic call (Test System: AMES SALMONELLA TYPHIMURIUM, Strain/Indicator: TA1538, Metabolic Activation: RAT, LIVER, S-9, Method: STANDARD PLATE): inactive; negative
mutagenic call (Test System: E. COLI, Strain/Indicator: WP2 UVRA, Metabolic Activation: HAMSTER, LIVER, S-9, AROCLOR 1254, Method: PREINCUBATION): active; positive
mutagenic call (Test System: E. COLI, Strain/Indicator: WP2 UVRA, Metabolic Activation: HAMSTER, LIVER, S-9, Method: PREINCUBATION): active; positive
mutagenic call (Test System: E. COLI, Strain/Indicator: WP2 UVRA, Metabolic Activation: MOUSE, LIVER, S-9, AROCLOR 1254, Method: PREINCUBATION): active; positive
mutagenic call (Test System: E. COLI, Strain/Indicator: WP2 UVRA, Metabolic Activation: NONE, Method: PREINCUBATION): active; positive
mutagenic call (Test System: E. COLI, Strain/Indicator: WP2 UVRA, Metabolic Activation: RAT, LIVER, S-9, AROCLOR 1254, Method: PREINCUBATION): active; positive
mutagenic call (Test System: E. COLI, Strain/Indicator: WP2 UVRA, Metabolic Activation: RAT, LIVER, S-9, Method: PREINCUBATION): active; positive
